Reference: US7622269B2, “Methods of screening tyramine- and octopamine-expressing cells for compounds and compositions having potential insect control activity” (Tyratech, Inc., priority 2004, dated 2009)
Values joined by “and” are separate entries in the source; they are usually repeats but may differ in a detail not shown here. Identical values can stand only once.

How the values were obtained:
control HEK-293 cells [1] = test: Intracellular calcium in control HEK-293 cells transfected with empty pCDNA3; format: cell-based, human
OAMB [2] = molecular target: T1, OAMB (Drosophila melanogaster, UniProt Q7JQF1, L268I/L487I/L521I/T180I); test: cAMP levels in HEK-293 cells expressing OAMB; format: cell-based; parameters: Oligonucleotides designed to amplify the open reading frame of Drosophila melanogaster OAMB; expressed in transfected cells; conditions: 10 μM
T1 sequence (Q7JQF1 other isoform, or with tags, fused parts or gaps T180I/L268I/L487I/L524I): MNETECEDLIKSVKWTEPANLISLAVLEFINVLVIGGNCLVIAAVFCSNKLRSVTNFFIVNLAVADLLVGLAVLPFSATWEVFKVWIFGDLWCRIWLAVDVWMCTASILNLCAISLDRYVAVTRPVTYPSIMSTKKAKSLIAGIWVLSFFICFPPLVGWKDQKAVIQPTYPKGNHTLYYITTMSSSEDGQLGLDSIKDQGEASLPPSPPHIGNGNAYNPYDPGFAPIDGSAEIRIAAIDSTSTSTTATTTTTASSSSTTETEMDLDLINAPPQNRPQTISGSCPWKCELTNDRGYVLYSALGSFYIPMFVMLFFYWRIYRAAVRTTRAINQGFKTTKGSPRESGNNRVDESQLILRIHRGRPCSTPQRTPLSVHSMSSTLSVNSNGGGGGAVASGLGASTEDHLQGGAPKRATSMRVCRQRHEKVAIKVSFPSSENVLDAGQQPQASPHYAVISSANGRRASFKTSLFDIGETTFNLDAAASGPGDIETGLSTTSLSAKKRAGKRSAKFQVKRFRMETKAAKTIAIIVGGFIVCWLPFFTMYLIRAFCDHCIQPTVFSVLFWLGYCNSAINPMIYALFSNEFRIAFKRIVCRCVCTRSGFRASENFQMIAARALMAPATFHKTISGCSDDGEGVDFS
Description: (§1) To determine cAMP levels in cells, about 24-hours before cell treatment, 300,000 HEK-293 cells are plated in 1 mL media with 0.8 mg G418/mL into multi-dishes (4.5 cm2). For cell treatment, the media is aspirated and 1 mL PBS with 300 μM IBMX and the test reagent is added. Cells are incubated at 37° C. for 20 min, and the PBS is then aspirated. Cells are incubated with 70% ethanol for 1 hour at −20° C. The cellular debris is centrifuged and then the supernatant is removed and lyophilized to dryness. The amount of cAMP in the extract is determined by using a cAMP binding protein from the ^3H-cAMP Biotrak assay system (Amersham Biosciences, Piscataway, N.J.) as per the manufacturer's instructions.

control HEK-293 cells [3] = test: cAMP levels in control HEK-293 cells transfected with pCDNA3 without insert; format: cell-based, human
Description: (§2) Twenty-four hours before cell treatment, about 300,000 HEK-293 cells are plated in about 1 ml media with about 0.8 mg G418/ml into multi-well dishes (e.g., 12-well, 4.5 cm^2). For cell treatment, the media is aspirated and about 1 ml PBS with about 300 μM IBMX and the test reagent is added. […] Cells are incubated with about 70% ethanol for about 1 h at about −20° C. The cellular debris is centrifuged and then the supernatant is removed and lyophilized to dryness. The amount of cAMP in the extract is determined by using a cAMP binding protein from the ^3H-cAMP Biotrak assay system (Amersham Biosciences) as per the manufacturer's instructions. To test the effects of calcium chelation on cAMP levels, the cells are incubated with about […] BAPTA/AM (Calbiochem Biochemicals, La Jolla, Calif.) for about 10 min before the addition of the test reagents.
To determine which second messenger signaling pathways octopamine could affect through the Pa oa1 receptor, HEK-293 cells are stably transfected with pCDNA3-Pa oa1 or pCDNA3 without an insert as a control.

Pa oa1 [4] = molecular target: T2, Pa oa1 (Periplaneta americana, UniProt Q7YWB7); test: Intracellular calcium (Fura-2) in HEK-293 cells expressing Pa oa1; format: cell-based
T2 sequence (Q7YWB7 entry or part of it): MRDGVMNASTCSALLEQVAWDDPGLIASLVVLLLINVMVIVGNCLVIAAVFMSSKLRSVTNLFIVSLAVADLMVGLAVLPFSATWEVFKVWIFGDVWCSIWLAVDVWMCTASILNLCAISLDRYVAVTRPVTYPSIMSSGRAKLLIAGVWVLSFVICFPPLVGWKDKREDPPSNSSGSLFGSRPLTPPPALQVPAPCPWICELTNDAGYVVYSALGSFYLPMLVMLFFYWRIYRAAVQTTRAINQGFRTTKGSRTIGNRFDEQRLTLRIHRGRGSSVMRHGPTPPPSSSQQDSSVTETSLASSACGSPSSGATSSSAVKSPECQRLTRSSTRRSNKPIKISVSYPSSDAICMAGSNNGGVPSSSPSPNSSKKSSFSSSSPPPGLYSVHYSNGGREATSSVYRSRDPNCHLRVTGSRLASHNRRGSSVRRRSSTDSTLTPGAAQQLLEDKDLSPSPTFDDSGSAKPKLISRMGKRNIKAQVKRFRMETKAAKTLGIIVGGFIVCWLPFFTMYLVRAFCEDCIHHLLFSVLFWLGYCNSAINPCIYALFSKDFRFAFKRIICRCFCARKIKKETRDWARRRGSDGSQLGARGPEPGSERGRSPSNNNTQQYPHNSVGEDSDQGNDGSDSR

Pa oa1 [5] = molecular target: T2, Pa oa1; test: cAMP levels in HEK-293 cells expressing Pa oa1; format: cell-based
Description: as §2, §1

OAMB [6] = molecular target: T1, OAMB; test: biochemical; format: binding; parameters: Oligonucleotides designed to amplify the open reading frame of Drosophila melanogaster OAMB; expressed in transfected cells
Pa oa1 [7] = molecular target: T2, Pa oa1; test: Competitive binding against 3H-yohimbine, Pa oa1 membranes
OAMB [8] = molecular target: T1, OAMB; test: Intracellular calcium (Fura-2) in HEK-293 cells expressing OAMB; conditions: 10 μM
Description: Cells are collected by scraping and are suspended at about 750,000 cells/ml in HBSS with about 5 μM Fura-2 AM (Sigma-Aldrich).

## NCC(O)c1ccc(O)cc1 (racemic) [Octopamine, DL-octopamine]
Control HEK-293 cells [1]; 10 μM, empty vector
  changes in [Ca2+]: insignificant changes
Control HEK-293 cells [1]; about 10 μM
  effect on intracellular calcium levels: Neither about 10 μM octopamine nor about 10 μM tyramine modulates intracellular calcium levels
OAMB [2]
  effect on level of cAMP: increases the level of cAMP
Control HEK-293 cells [3]; 10 μM, empty vector
  changes in cAMP level: insignificant changes
Control HEK-293 cells [3]; up to about 100 μM
  effect on cAMP levels: neither DL-octopamine nor tyramine at concentrations up to about 100 μM has significant effects on cAMP levels
Pa oa1 [4]
  lowest concentration that increases intracellular calcium levels: about 10 nM
Pa oa1 [4]; 10 μM
  effect on level of [Ca2+]i: increases the level [Ca^2+]i
Pa oa1 [4]; about 100 nM
  effect on intracellular calcium: a rapid increase in intracellular calcium is detected
Pa oa1 [5]; 10 μM
  effect on level of cAMP: increases the level of cAMP
Pa oa1 [5]; 300 μM IBMX, read-out: EC50 for increase in cAMP
  EC50: ~1.62 µM
Pa oa1 [5]; HEK293, 20 min, about 100 μM amine, read-out: increase in cAMP
  fold induction at 100 µM: ~911
Pa oa1 [5]; about 10 nM amine, basal about 0.48 pmol cAMP
  cAMP concentration: about 1.2 pmol cAMP
OAMB [6]
  Ki: 8.2 µM
OAMB [6]; OAMB
  affinity of octopamine higher than tyramine: about 4.1 fold
Pa oa1 [7]; Table B, 4 nM 3H-yohimbine
  Ki: 13.3 µM
Pa oa1 [7]; about 2 nM 3H-yohimbine
  Ki: ~13.3 µM and 13.3 µM
Pa oa1 [7]; Pa oa1
  affinity of octopamine higher than tyramine: about 2.3 fold
OAMB [8]
  effect on level of [Ca2+]i: increases the level [Ca^2+]i
